From US20250099448A1, “HETEROCYCLIC COMPOUNDS” (Hoffmann-La Roche Inc., priority 2022, published 2025)

Each compound was assayed against T1, MAGL protein (Homo sapiens, UniProt Q99685) (assay: 2-AG assay: MAGL inhibitory activity by hydrolysis of 2-arachidonoylglycerol to arachidonic acid, followed by mass spectrometry). Conditions: 8 μM 2-arachidonoylglycerol, 15 min preincubation, 30 min reaction at RT, RapidFire MS readout.
T1 sequence (Q99685 1-303): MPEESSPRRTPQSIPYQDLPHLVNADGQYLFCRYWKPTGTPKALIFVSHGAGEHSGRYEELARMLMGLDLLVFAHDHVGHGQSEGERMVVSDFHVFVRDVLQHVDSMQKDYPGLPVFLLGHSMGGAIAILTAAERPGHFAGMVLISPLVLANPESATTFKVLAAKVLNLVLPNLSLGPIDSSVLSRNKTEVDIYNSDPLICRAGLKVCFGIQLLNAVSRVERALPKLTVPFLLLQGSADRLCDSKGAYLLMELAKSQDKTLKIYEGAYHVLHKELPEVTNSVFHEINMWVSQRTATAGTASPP
Format: biochemical
Method in brief: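 Activity was measured by RapidFire SPE–triple-quad MS as the ratio of arachidonic acid to d8-arachidonic acid after 2-AG hydrolysis (8 μM substrate, 30 min, RT, acetonitrile quench). Compounds, tested from 12.5 μM down to […], were first preincubated 15 min with MAGL in TRIS/EDTA/Tween-20 buffer containing 2.5% DMSO.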

| IC50 | SMILES |
| --- | --- |
| 5.61 nM | O=C(N1CCC(OCc2ccc(C(F)(F)F)cc2F)CC1)N1CC2(CC(c3nc(C4CC4)n[nH]3)C2)C1 [Example 906, [6-(3-cyclopropyl-1H-1,2,4-triazol-5-yl)-2-azaspiro[3.3]heptan-2-yl]-[4-[2-fluoro-4-(trifluoromethyl)benzyl]oxypiperidino]methanone] |
| 43.1 nM | CS(=O)(=O)c1cc(C(F)(F)F)ccc1COC1CCN(C(=O)N2CC3(CC(c4nc(C5CC5)n[nH]4)C3)C2)CC1 [Example 907, [6-(3-cyclopropyl-1H-1,2,4-triazol-5-yl)-2-azaspiro[3.3]heptan-2-yl]-[4-[2-mesyl-4-(trifluoromethyl)benzyl]oxypiperidino]methanone] |
| 56.6 nM | N#Cc1cc(Cl)cnc1OCC1CCN(C(=O)N2CC3(CC(c4nc(C5CC5)n[nH]4)C3)C2)CC1 [Example 908] |
| 4.23 nM | N#Cc1[nH]nnc1-c1ccc(C2CN(C(=O)N3CC4(CC(c5nnc(C6CC6)[nH]5)C4)C3)C2)cc1 [Example 910, 4-[4-[1-[6-(5-cyclopropyl-4H-1,2,4-triazol-3-yl)-2-azaspiro[3.3]heptane-2-carbonyl]azetidin-3-yl]phenyl]-1H-triazole-5-carbonitrile] |
| 241 nM | CS(=O)(=O)c1cc(C(F)(F)F)ccc1OCC1CCN(C(=O)N2CC3(CC(c4nc(C5CC5)n[nH]4)C3)C2)CC1 [Example 915, [6-(3-cyclopropyl-1H-1,2,4-triazol-5-yl)-2-azaspiro[3.3]heptan-2-yl]-[4-[[2-mesyl-4-(trifluoromethyl)phenoxy]methyl]piperidino]methanone] |
| 39.7 nM | O=C(N1CCC(COc2ccc(F)c(C(F)(F)F)c2)CC1)N1CC2(CC(c3nc(C4(O)CC4)n[nH]3)C2)C1 [Example 916, [4-[[4-fluoro-3-(trifluoromethyl)phenoxy]methyl]piperidino]-[6-[3-(1-hydroxycyclopropyl)-1H-1,2,4-triazol-5-yl]-2-azaspiro[3.3]heptan-2-yl]methanone] |
| 237 nM | CS(=O)(=O)c1cc(OC(F)(F)F)ccc1OCC1CCN(C(=O)N2CC3(CC(c4nnc(C5CC5)[nH]4)C3)C2)CC1 [Example 917, [6-(5-cyclopropyl-4H-1,2,4-triazol-3-yl)-2-azaspiro[3.3]heptan-2-yl]-[4-[[2-mesyl-4-(trifluoromethoxy)phenoxy]methyl]piperidino]methanone] |
| 964 nM | CS(=O)(=O)c1ccc(COC2CCN(C(=O)N3CC4(CC(c5nc(C6(O)CC6)n[nH]5)C4)C3)CC2)c(Cl)c1 [Example 918, [4-(2-chloro-4-mesyl-benzyl)oxypiperidino]-[6-[3-(1-hydroxycyclopropyl)-1H-1,2,4-triazol-5-yl]-2-azaspiro[3.3]heptan-2-yl]methanone] |
| 1200 nM | CS(=O)(=O)c1cc(C(F)(F)F)ccc1OCC1CCN(C(=O)N2CC3(CC(c4nc(C5(O)CC5)n[nH]4)C3)C2)CC1 [Example 919, [6-[3-(1-hydroxycyclopropyl)-1H-1,2,4-triazol-5-yl]-2-azaspiro[3.3]heptan-2-yl]-[4-[[2-mesyl-4-(trifluoromethyl)phenoxy]methyl]piperidino]methanone] |
| 31.5 nM | O=C(N1CCC(COc2cc(F)cc(C(F)(F)F)c2)CC1)N1CC2(CC(c3nc(C4(O)CC4)n[nH]3)C2)C1 [Example 921, [4-[[3-fluoro-5-(trifluoromethyl)phenoxy]methyl]piperidino]-[6-[3-(1-hydroxycyclopropyl)-1H-1,2,4-triazol-5-yl]-2-azaspiro[3.3]heptan-2-yl]methanone] |
| 326 nM | CS(=O)(=O)c1ccc(OCC2CCN(C(=O)N3CC4(CC(c5nc(C6(O)CC6)n[nH]5)C4)C3)CC2)cc1C(F)(F)F [Example 922] |
| 731 nM | CS(=O)(=O)c1cc(OC(F)(F)F)ccc1OCC1CCN(C(=O)N2CC3(CC(c4nc(C5(O)CC5)n[nH]4)C3)C2)CC1 [Example 923] |
| 49.2 nM | CS(=O)(=O)c1ccc(OCC2CCN(C(=O)N3CC4(CC(c5n[nH]c(C6CC6)n5)C4)C3)CC2)cc1C(F)(F)F [Example 924, [6-(5-cyclopropyl-1H-1,2,4-triazol-3-yl)-2-azaspiro[3.3]heptan-2-yl]-[4-[[4-mesyl-3-(trifluoromethyl)phenoxy]methyl]piperidino]methanone] |
| 79.2 nM | CS(=O)(=O)c1ccc(COC2CCN(C(=O)N3CC4(CC(c5n[nH]c(C6CC6)n5)C4)C3)CC2)c(Cl)c1 [Example 925, [4-(2-chloro-4-mesyl-benzyl)oxypiperidino]-[6-(5-cyclopropyl-1H-1,2,4-triazol-3-yl)-2-azaspiro[3.3]heptan-2-yl]methanone] |
| 2.35 nM | NC1(c2nnc(C3CC4(C3)CN(C(=O)N3CC5(CC(Cc6ccc(C(F)(F)F)cn6)C5)C3)C4)[nH]2)CC1 [Example 948, [6-[5-(1-aminocyclopropyl)-4H-1,2,4-triazol-3-yl]-2-azaspiro[3.3]heptan-2-yl]-[6-[[5-(trifluoromethyl)-2-pyridyl]methyl]-2-azaspiro[3.3]heptan-2-yl]methanone] |
| 23.1 nM | O=C(N1CC2(CCN(Cc3cc(C(F)(F)F)no3)CC2)C1)N1CC2(CC(c3nc(C4CC4)n[nH]3)C2)C1 [Example 955, [6-(3-cyclopropyl-1H-1,2,4-triazol-5-yl)-2-azaspiro[3.3]heptan-2-yl]-[7-[[3-(trifluoromethyl)isoxazol-5-yl]methyl]-2,7-diazaspiro[3.5]nonan-2-yl]methanone] |
| 152 nM | Cn1c(CN2CC3(C2)CN(C(=O)N2CC4(CC(c5nc(C6CC6)n[nH]5)C4)C2)C3)nnc1C(F)(F)F [Example 958, [6-(3-cyclopropyl-1H-1,2,4-triazol-5-yl)-2-azaspiro[3.3]heptan-2-yl]-[6-[[4-methyl-5-(trifluoromethyl)-1,2,4-triazol-3-yl]methyl]-2,6-diazaspiro[3.3]heptan-2-yl]methanone] |
| 2940 nM | O=C(c1cccc(F)c1)N1CCN(C(=O)N2CC3(CC(c4nnc(C5CC5)[nH]4)C3)C2)CC1 [Example 979, [4-[6-(5-cyclopropyl-4H-1,2,4-triazol-3-yl)-2-azaspiro[3.3]heptane-2-carbonyl]piperazino]-(3-fluorophenyl)methanone] |
| 2520 nM | COc1cc(COC2CCN(C(=O)N3CC4(CC(c5nc(C6CC6)n[nH]5)C4)C3)CC2)ccc1C(N)=O [Example 980, 4-[[1-[6-(3-cyclopropyl-1H-1,2,4-triazol-5-yl)-2-azaspiro[3.3]heptane-2-carbonyl]-4-piperidyl]oxymethyl]-2-methoxy-benzamide] |
| 0.19 nM | N=S(=O)(c1ccc(CC2CC3(C2)CN(C(=O)N2CC4(CC(c5nc(C6CC6)n[nH]5)C4)C2)C3)cc1)C(F)(F)F (stereo not drawn) [compound 2] |

| IC50 | SMILES |
| --- | --- |
| 4.89 nM | O=C(N1CC2(CC(Cc3cnc(C(F)(F)F)cn3)C2)C1)N1CC2(CC(c3nc(C4(O)CC4)n[nH]3)C2)C1 [compound 4] |
| 0.16 nM | O=C(N1CC2(CC(Cc3ccc(C(F)(F)F)nc3)C2)C1)N1CC2(CC(c3nnc(C4CC4)[nH]3)C2)C1 [compound 5] |
| 1.15 nM | O=C(N1CC2(CC(Cc3ccc(C(F)(F)F)nc3)C2)C1)N1CC2(CC(c3nnc(C4(O)CC4)[nH]3)C2)C1 [compound 6] |
| 3.65 nM | O=C(N1CC2(CC(Cc3ccc(C(F)(F)F)nc3)C2)C1)N1CC2(CC(c3nnc(C4CCC4)[nH]3)C2)C1 [compound 7] |
| 0.13 nM | O=C(N1CC2(CC(Cc3ccc(OC(F)(F)F)cn3)C2)C1)N1CC2(CC(c3nnc(C4CC4)[nH]3)C2)C1 [compound 8] |
| 0.57 nM | O=C(N1CC2(CC(Cc3ccc(OC(F)(F)F)cn3)C2)C1)N1CC2(CC(c3nnc(C4(O)CC4)[nH]3)C2)C1 [compound 9] |
| 0.81 nM | CS(=O)(=O)c1ccc(CC2CC3(C2)CN(C(=O)N2CC4(CC(c5nnc(C6CC6)[nH]5)C4)C2)C3)cc1 [compound 12] |
| 4.72 nM | CS(=O)(=O)c1ccc(CC2CC3(C2)CN(C(=O)N2CC4(CC(c5nnc(C6(O)CC6)[nH]5)C4)C2)C3)cc1 [compound 13] |
| 14.8 nM | CS(=O)(=O)c1ccc(CC2CC3(C2)CN(C(=O)N2CC4(CC(c5nnc(C6CCC6)[nH]5)C4)C2)C3)cc1 [compound 14] |
| 1.33 nM | CS(=O)(=O)c1cccc(CC2CC3(C2)CN(C(=O)N2CC4(CC(c5nnc(C6CC6)[nH]5)C4)C2)C3)c1 [compound 15] |
| 1.51 nM | CS(=O)(=O)c1cccc(CC2CC3(C2)CN(C(=O)N2CC4(CC(c5nnc(C6(O)CC6)[nH]5)C4)C2)C3)c1 [compound 16] |
| 15.2 nM | CS(=O)(=O)c1cccc(CC2CC3(C2)CN(C(=O)N2CC4(CC(c5nnc(C6CCC6)[nH]5)C4)C2)C3)c1 [compound 17] |
| 0.3 nM | CS(=O)(=O)c1cc(F)cc(CC2CC3(C2)CN(C(=O)N2CC4(CC(c5nnc(C6CC6)[nH]5)C4)C2)C3)c1 [compound 18] |
| 4.81 nM | CS(=O)(=O)c1cc(F)cc(CC2CC3(C2)CN(C(=O)N2CC4(CC(c5nnc(C6(O)CC6)[nH]5)C4)C2)C3)c1 [compound 19] |
| 0.74 nM | O=C(N1CC2(CC(Cc3cnc(C(F)(F)F)nc3)C2)C1)N1CC2(CC(c3nnc(C4CC4)[nH]3)C2)C1 [compound 20] |
| 5.33 nM | O=C(N1CC2(CC(Cc3cnc(C(F)(F)F)nc3)C2)C1)N1CC2(CC(c3nnc(C4(O)CC4)[nH]3)C2)C1 [compound 21] |
| 0.8 nM | O=C(N1CC2(CC(Cc3ccc(C(F)(F)F)nn3)C2)C1)N1CC2(CC(c3nnc(C4CC4)[nH]3)C2)C1 [compound 22] |
| 4.43 nM | O=C(N1CC2(CC(Cc3ccc(C(F)(F)F)nn3)C2)C1)N1CC2(CC(c3nnc(C4(O)CC4)[nH]3)C2)C1 [compound 23] |
| 0.7 nM | CS(=O)(=O)c1cc(F)ccc1CC1CC2(C1)CN(C(=O)N1CC3(CC(c4nnc(C5CC5)[nH]4)C3)C1)C2 [compound 24] |
